Data as given in patent publication US20080038276A1, “INHIBITORS OF PLASMA KALLIKREIN” (Activesite Pharmaceuticals, Inc., priority 2006, published 2008).
Like-named read-outs stand apart in the source and are kept apart here.

Experiments:
Plasmin = molecular target: T1, Plasmin (Homo sapiens, UniProt P00747); experiment: Specificity profile: amidolytic activity with synthetic substrate; format: biochemical; settings: highest concentration tested 10 μM
T1 construct: agents that lead to the generation of active plasmin from plasminogen
T1 sequence (P00747 581-810 limits assumed, species assumed): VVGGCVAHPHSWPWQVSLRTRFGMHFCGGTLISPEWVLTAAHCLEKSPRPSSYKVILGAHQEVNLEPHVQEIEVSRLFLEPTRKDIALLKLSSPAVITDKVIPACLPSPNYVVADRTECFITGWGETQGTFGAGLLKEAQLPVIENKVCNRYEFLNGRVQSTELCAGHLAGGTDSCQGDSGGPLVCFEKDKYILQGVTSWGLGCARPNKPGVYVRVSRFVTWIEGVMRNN
T1 sequence (P00747 97-580 partner limits assumed, species assumed): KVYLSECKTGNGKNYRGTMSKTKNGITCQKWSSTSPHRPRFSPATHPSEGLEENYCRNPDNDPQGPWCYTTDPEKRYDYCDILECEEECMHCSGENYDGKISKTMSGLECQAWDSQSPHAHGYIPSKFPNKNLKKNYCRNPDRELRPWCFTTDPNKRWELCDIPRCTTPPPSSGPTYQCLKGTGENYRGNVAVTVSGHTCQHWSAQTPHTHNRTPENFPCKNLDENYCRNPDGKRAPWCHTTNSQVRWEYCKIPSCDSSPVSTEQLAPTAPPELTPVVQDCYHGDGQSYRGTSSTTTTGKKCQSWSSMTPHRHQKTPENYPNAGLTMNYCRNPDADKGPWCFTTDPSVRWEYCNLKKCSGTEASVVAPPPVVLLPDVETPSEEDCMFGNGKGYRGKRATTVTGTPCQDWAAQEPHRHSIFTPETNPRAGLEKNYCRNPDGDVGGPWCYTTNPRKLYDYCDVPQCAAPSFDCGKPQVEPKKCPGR
Method: (§1) The highest concentration of either compound tested was 10 μM.

FXa = FXa (Homo sapiens, UniProt P00742); experiment: as above; format: biochemical; settings: highest concentration tested 10 μM
Chain of FXa (P00742 235-488 limits assumed): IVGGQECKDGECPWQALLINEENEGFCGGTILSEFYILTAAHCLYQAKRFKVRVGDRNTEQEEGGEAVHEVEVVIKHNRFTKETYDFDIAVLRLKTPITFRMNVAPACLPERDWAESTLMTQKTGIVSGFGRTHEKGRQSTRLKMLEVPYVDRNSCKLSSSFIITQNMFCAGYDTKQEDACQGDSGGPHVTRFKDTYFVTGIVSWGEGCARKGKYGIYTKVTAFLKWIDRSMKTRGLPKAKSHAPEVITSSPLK
Chain of FXa (P00742 41-179 partner limits assumed): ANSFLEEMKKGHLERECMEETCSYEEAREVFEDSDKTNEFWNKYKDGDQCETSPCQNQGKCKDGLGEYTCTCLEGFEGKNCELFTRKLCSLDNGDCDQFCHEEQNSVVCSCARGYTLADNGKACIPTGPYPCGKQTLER
Method: as §1

FXIa = FXIa (Homo sapiens, UniProt P03951); experiment: as above; format: biochemical; settings: highest concentration tested 10 μM
Chain of FXIa (P03951 388-625 limits assumed): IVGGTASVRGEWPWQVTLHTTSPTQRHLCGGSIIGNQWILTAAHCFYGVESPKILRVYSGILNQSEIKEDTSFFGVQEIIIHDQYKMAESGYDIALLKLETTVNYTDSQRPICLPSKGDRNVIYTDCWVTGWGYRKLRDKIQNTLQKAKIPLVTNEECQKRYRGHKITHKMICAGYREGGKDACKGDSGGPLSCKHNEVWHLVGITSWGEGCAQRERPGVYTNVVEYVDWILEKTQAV
Chain of FXIa (P03951 19-387 partner limits assumed): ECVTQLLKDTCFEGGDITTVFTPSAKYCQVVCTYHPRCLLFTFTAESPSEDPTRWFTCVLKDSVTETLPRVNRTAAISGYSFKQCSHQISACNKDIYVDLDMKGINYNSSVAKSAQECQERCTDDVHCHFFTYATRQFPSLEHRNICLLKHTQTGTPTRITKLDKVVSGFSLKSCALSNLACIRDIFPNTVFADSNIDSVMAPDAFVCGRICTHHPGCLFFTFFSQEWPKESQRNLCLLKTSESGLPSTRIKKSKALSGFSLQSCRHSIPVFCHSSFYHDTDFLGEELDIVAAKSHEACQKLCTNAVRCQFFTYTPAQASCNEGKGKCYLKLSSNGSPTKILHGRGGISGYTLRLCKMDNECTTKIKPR
Method: as §1

Thrombin = Thrombin (Homo sapiens, UniProt P00734); experiment: as above; format: biochemical; settings: highest concentration tested 10 μM
Method: as §1

FXIIa = molecular target: T2, FXIIa (Homo sapiens, UniProt P00748); experiment: as above; format: biochemical; settings: highest concentration tested 10 μM
T2 sequence (P00748 373-615 limits assumed): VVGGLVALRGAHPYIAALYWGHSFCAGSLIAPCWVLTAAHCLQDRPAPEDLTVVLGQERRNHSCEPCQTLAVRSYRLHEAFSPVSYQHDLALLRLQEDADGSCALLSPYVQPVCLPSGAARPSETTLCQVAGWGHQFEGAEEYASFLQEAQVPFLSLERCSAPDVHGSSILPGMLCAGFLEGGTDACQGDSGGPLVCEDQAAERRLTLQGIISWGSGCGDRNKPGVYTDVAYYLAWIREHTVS
Method: as §1

[1] = molecular target: T3, Human plasma kallikrein (PK) (Homo sapiens, UniProt P03952); experiment: Inhibition of human plasma kallikrein amidolytic activity (H-D-Pro-Phe-Arg-pNA cleavage, A405); format: biochemical
T3 construct: purchased Haemtech Technologies (Essex Junction, Vt.)
T3 sequence (P03952 391-638 limits assumed): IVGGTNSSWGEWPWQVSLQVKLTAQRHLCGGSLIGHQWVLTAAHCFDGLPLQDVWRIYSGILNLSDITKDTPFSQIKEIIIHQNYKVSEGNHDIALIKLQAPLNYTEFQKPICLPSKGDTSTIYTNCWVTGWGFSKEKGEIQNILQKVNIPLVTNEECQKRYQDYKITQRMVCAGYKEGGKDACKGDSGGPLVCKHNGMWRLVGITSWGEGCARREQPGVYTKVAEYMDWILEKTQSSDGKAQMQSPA
T3 sequence (P03952 20-390 partner limits assumed): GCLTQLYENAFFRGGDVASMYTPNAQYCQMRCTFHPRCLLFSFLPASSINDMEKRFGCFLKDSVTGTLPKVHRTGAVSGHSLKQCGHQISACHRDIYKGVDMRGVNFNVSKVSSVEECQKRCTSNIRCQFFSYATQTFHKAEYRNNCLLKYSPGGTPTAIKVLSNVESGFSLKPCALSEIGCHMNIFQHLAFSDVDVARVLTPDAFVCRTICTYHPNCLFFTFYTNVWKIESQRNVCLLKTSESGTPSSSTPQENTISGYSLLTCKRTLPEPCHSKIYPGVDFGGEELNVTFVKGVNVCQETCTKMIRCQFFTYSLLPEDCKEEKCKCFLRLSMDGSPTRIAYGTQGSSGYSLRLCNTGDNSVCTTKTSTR
Method: Human plasma kallikrein (PK) was obtained from Haemtech Technologies (Essex Junction, Vt.). The enzymatic activity of PK was assayed using the synthetic peptide substrate H-D-Pro-Phe-Arg-pNA (Bachem, Inc., Switzerland) with the cleavage of the substrate by the enzyme resulting in an increase in A405, measured using a Molecular Devices Vmax Kinetic Microplate Reader. The uninhibited (control) activity of PK was determined by adding 190 μl of PK solution (1 nM in 0.05 M HEPES, pH 7.5, 0.01% Triton X-100) to 10 μl of H-D-Pro-Phe-Arg-pNA (2 mM in DMSO) in individual microtiter plate wells, mixed immediately by shaking, and the rate of increase in A405 determined over 120-180 sec. In parallel, compounds of the present invention were mixed in separate wells with the synthetic substrate to attain final concentrations of between 0.01-10 μM in the final 200 μl reaction mixture, and the reaction initiated by the addition of 190 μl of the PK solution.
as §1

[2] = test system: plasmin-activated coagulation in plasma; experiment: Plasmin-activated coagulation of plasma (plasmin + 6.25% Actin FS), time to coagulation; parameters: species or system human; settings: for prolongs time to coagulation: normal plasma, 200 nM plasmin
Method: In the clotting paradigm utilized in Example 3, plasma is mixed 1:1 with commercially formulated Actin FS. Thus, 50% (v/v) Actin FS is the maximum amount of activator that can be added while maintaining the amount of plasma constant at 50% of the incubation mixture. Since the clotting time in normal plasma is dependent on the amount of Actin FS present in the incubation mixture, these conditions would by definition lead to the shortest time to coagulation mediated by the intrinsic pathway in this paradigm. Lowering the amount of contact activator leads to a decrease in the amount of PK activated, thus reducing the amount of thrombin generated and slowing the time to coagulation (data not shown). Therefore, in order to determine whether addition of exogenous plasmin (mimicking a fibrinolytic setting) can shorten time to coagulation, the amount of Actin FS reagent added to the plasma (kept constant at 50% of the final incubation mixture) was lowered so as to attain 6.25% (final v/v).
This provides direct evidence that plasmin can have a thrombogenic effect when added to plasma in the presence of a small amount of contact activator.
The role for PK was established by evaluating deficiencies in PK, as well as by using two specific inhibitors of the enzymes. In order to determine whether blocking PK via a specific monoclonal antibody (MAb) would also be effective in inhibiting coagulation in either of the two paradigms described here, and thus provide additional validation for the invention, MAb 13G11, which has been previously characterized as being specific for PK (Veloso et al, (1987) Blood, 70, 1053-1062), was tested in each of the coagulation paradigms described in Examples 2 and 3. MAb 13G11 (obtained from GeneTex, San Antonio, Tex.) was added at a final concentration of 0.036 mg/ml in the 50% plasma—50% activator mix in each paradigm. This calculates to an approximately 2-fold molar excess over the amount of PK that would be present in the plasma—activator mixture, based on the literature reference of Veloso et al, (1987), Blood, 70, 1053-1062. Control samples were treated with 0.036 mg/ml of an isotype-matched control IgG1 (also obtained from GeneTex). When plasma was activated using 50% Actin FS (FIG. 5), MAb 13G11 prolonged time to coagulation by 100% (45% of the maximal effect obtained with PK-deficient plasma), and, when plasma was activated using 200 nM plasmin+6.25% Actin FS (FIG. 6), prolonged time to coagulation by 32% (40% of the maximal effect obtained with PK-deficient plasma).

rat models of arthritis = settings: in vivo; cited from earlier work
patients with HAE = settings: in vivo; cited from earlier work
[3] = test system: LPS or bacterial induced sepsis in animals; settings: in vivo; cited from earlier work
mouse model of MCAO = settings: in vivo; cited from earlier work
sepsis patients = settings: in vivo; cited from earlier work
[4] = apparent inhibition constant, 1 nM PK, pH 7.5, read-out: PK Kiapp
[5] = purified human PK, highest concentration tested 10 μM, read-out: Ki PK

| Molecule | Ki (Plasmin) [µM] | Ki (FXa) [µM] | Ki (FXIa) [µM] | Ki (Thrombin) [µM] | Ki (FXIIa) [µM] | Ki [1, 4] [µM] | Ki [1, 5] [µM] | also measured |
| --- | --- | --- | --- | --- | --- | --- | --- | --- |
| Cc1cc(C(=O)NCc2ccc(C(=N)N)cc2)c(C)n1Cc1ccncc1 [ASP-465, 2,5-Dimethyl-1-pyridin-4-ylmethyl-1H-pyrrole-3-carboxylic acid 4-carbamimidoyl-benzylamide] | > 10 | > 10 | > 10 | > 10 | > 10 | 0.08 | 0.03 | potency (Ki) towards PK relative to ASP-440 ([1]; ratio of Ki values): 3 fold; block of the plasmin-induced shortening of time to coagulation attributable to PK ([2]; 10 μM): almost completely blocks; prolongs time to coagulation ([2]; compound 3.3 or 10 μM): 36-75%; potency towards inhibiting plasmin-activated coagulation relative to ASP-440 ([2]; same prolongation at 3.3 μM as ASP-440 at 10 μM): 3 fold |
| N=C(N)c1ccc(CNC(=O)c2cnn(Cc3ccccc3)c2)cc1 [ASP-440, 1-Benzyl-1H-pyrazole-4-carboxylic acid 4-carbamimidoyl-benzylamide] | > 10 | > 10 | > 10 | > 10 | > 10 | 0.31 | 0.09 | prolongs time to coagulation ([2]; compound 10 μM): 36% |
| Cl.NCC1CCC(C(=O)N[C@@H](Cc2ccccc2)C(=O)Nc2ccc(CC(=O)O)cc2)CC1 (stereo partly drawn) [PKSI-527] |  |  |  |  |  |  |  | joint swelling (rat models of arthritis): reduce |
| NC(N)=NCCC[C@@H](N)C(=O)N[C@@H](CCCN=C(N)N)C(=O)N1CCC[C@H]1C(=O)N1C[C@H](O)C[C@H]1C(=O)NCC(=O)N[C@@H](Cc1cccs1)C(=O)N[C@@H](CO)C(=O)N1Cc2ccccc2C[C@@H]1C(=O)N1[C@H](C(=O)N[C@@H](CCCN=C(N)N)C(=O)O)C[C@@H]2CCCC[C@@H]21 [Icatibant] |  |  |  |  |  |  |  | treating HAE (patients with HAE): effective |
| C1-INH: a physiological inhibitor (protein, UniProt P05155 23-500, looked up) Plasma protease C1 inhibitor: NPNATSSSSQDPESLQDRGEGKVATTVISKMLFVEPILEVSSLPTTNSTTNSATKITANTTDEPTTQPTTEPTTQPTIQPTQPTTQLPTDSPTQPTTGSFCPGPVTLCSDLESHSTEAVLGDALVDFSLKLYHAFSAMKKVETNMAFSPFSIASLLTQVLLGAGENTKTNLESILSYPKDFTCVHQALKGFTTKGVTSVSQIFHSPDLAIRDTFVNASRTLYSSSPRVLSNNSDANLELINTWVAKNTNNKISRLLDSLPSDTRLVLLNAIYLSAKWKTTFDPKKTRMEPFHFKNSVIKVPMMNSKKYPVAHFIDQTLKAKVGQLQLSHNLSLVILVPQNLKHRLEDMEQALSPSVFKAIMEKLEMSKFQPTLLTLPRIKVTTSQDMLSIMEKLEFFDFSYDLNLCGLTEDPDLQVSAMQHQTVLELTETGVEAAAASAISVARTLLVFEVQQPFLFVLWDQQHKFPVFMGRVYDPRA |  |  |  |  |  |  |  | vascular permeability in multiple organs and lesions [3]: reduce; infarct size (mouse model of MCAO): reduced; clinical outcome in sepsis patients (sepsis patients): Clinical improvement |
